Data published in US10308881B2, “Process to produce oil with low polyaromatic hydrocarbon content” (PT PERTAMINA (PERSERO), priority 2010, dated 2019).

System: Salmonella typhimurium TA 1535
Experiment: Mutagenicity test (AMES Test, OECD Guidelines for Testing of Chemicals No. 471)
Assay type: cell-based
Settings: without dilution
From the text: One of the important consideration published in the European Commission 2005/69/EC (European legislation) confirmed the restriction that the level of 8 Grimmers PAHs especially Benzo(a)pyrene (BaP) with amount exceeding the allowed limit will be considered as carcinogenic, mutagenic and toxic, and thereby will be prohibited to produce and distribute within the European legislation area. The presence of PAHs can be detected qualitatively and quantitatively using Benzo(a)Pyrene (BaP) as marker. Commonly known method to measure carcinogenic and mutagenic compound is ASTM E 1687-98 method (Ames test method for determining carcinogenic potential of Virgin Base Oils in Metalworking Fluids) and also Ames test based on OECD Guidelines for Testing of Chemicals No 471(1997). In the present invention method of AMES test using Salmonella typhimurium TA 1535 as microbes that is very sensitive to mutagenic compounds.
The mutagenity test was conducted using AMES Test based on OECD Guidelines for Testing of Chemicals No. 471 (1997). In this test Salmonella typhimurium TA 1535 was used as microbe material which was very sensitive to mutagenic compound. The number of colony which grew was an indicator of mutagenic activity of the PAH compound in the DAE Feed, TDAE-1 and TDAE-2, respectively. […]

C[S+](C)[O-] [DMSO, dimethylsulfoxide]
Average Number of Colony Koloni (With S-9 Mix): 377
Average Number of Colony Koloni (Without S-9 Mix): 314
